Assay results taken from PubChem BioAssay AID1259407 (Chemical Carcinogenesis Research Information System (CCRIS), 2018).
Calls of active or inactive are those of the source. The rule behind the calls is not given here.

System: CCRIS mutagenicity, Ames/micronucleus/aberration tests
Assay: CCRIS mutagenicity studies
Source text: The CCRIS database contains chemical records with carcinogenicity, mutagenicity, tumor promotion, and tumor inhibition test results. It was developed by the National Cancer Institute (NCI). Data are derived from studies cited in primary journals, current awareness tools, NCI reports, and other sources. Test results have been reviewed by experts in carcinogenesis and mutagenesis.
CCRIS provides historical information from the years 1985 - 2011. It is no longer updated.
This is an archive assay for CCRIS mutagenicity studies.

Measured: mutagenic call

CN(C)N=O
active: End Point: IN VITRO CHROMOSOMAL ABERRATIONS, Test System: CHL/IU CELLS, Metabolic Activation: RAT, LIVER, S-9, PHENOBARBITAL AND 5,6-BENZOFLAVONE active; positive (structural changes) | End Point: IN VITRO MICRONUCLEUS, Test System: CHL/IU CELLS, Metabolic Activation: RAT, LIVER, S-9, PHENOBARBITAL AND 5,6-BENZOFLAVONE active; positive | End Point: IN VIVO MICRONUCLEUS, Test System: HEPATOCYTES, Species: RAT, Strain/Sex: FISHER 344 OR SD/MALE, Route: ORAL OR IP active; positive | End Point: In vivo micronucleus, Test System: Liver, Species: Mouse, Strain/Sex: Big Blue/Male, Route: Oral active; positive for laci mutation frequency in liver; high percentage of g:c to t:a t | End Point: In vivo micronucleus, Test System: Micronucleated hepatocytes, Species: Rat, Strain/Sex: F344/Male, Route: Oral active; positive (p<0.01) | Test System: AMES SALMONELLA TYPHIMURIUM, Strain/Indicator: NM2000, Metabolic Activation: RAT, LIVER, S-9, ISONIAZID, Method: PREINCUBATION active; positive | Test System: AMES SALMONELLA TYPHIMURIUM, Strain/Indicator: NM2009, Metabolic Activation: RAT, LIVER, S-9, ISONIAZID, Method: PREINCUBATION active; positive | Test System: AMES SALMONELLA TYPHIMURIUM, Strain/Indicator: TA92, Metabolic Activation: MOUSE, LIVER, S-10, Method: PREINCUBATION active; positive | Test System: AMES SALMONELLA TYPHIMURIUM, Strain/Indicator: TA100, Metabolic Activation: HAMSTER, LIVER, S-9, AROCLOR 1254, NADPH GENERATING SYSTEM, CYTOSOL, Method: PREINCUBATION active; positive | Test System: AMES SALMONELLA TYPHIMURIUM, Strain/Indicator: TA100, Metabolic Activation: HAMSTER, LIVER, S-9, Method: PREINCUBATION active; positive | Test System: AMES SALMONELLA TYPHIMURIUM, Strain/Indicator: TA100, Metabolic Activation: MICROSOMES, CYTOSOL, Method: PREINCUBATION active; positive | Test System: AMES SALMONELLA TYPHIMURIUM, Strain/Indicator: TA100, Metabolic Activation: MOUSE, INTACT UROTHELIAL CELLS, Method: FLUCTUATION TEST active; positive | Test System: AMES SALMONELLA TYPHIMURIUM, Strain/Indicator: TA100, Metabolic Activation: MOUSE, LIVER, S-9, PHENOBARBITAL AND BETA-NAPHTHOFLAVONE, Method: PREINCUBATION active; positive | Test System: AMES SALMONELLA TYPHIMURIUM, Strain/Indicator: TA100, Metabolic Activation: MOUSE, LIVER, S-9, PHENOBARBITAL, BETA-NAPHTHOFLAVONE, ISOSAFROLE, ETHANOL, PREGNENOLONE AND 16ALPHA-CARBONITRILE, Method: PREINCUBATION active; positive | Test System: AMES SALMONELLA TYPHIMURIUM, Strain/Indicator: TA100, Metabolic Activation: RAT, INTACT UROTHELIAL CELLS, Method: FLUCTUATION TEST active; positive | Test System: AMES SALMONELLA TYPHIMURIUM, Strain/Indicator: TA100, Metabolic Activation: RAT, LIVER, S-9, AROCLOR 1254, (PREGNANT MARE SERUM), Method: PREINCUBATION active; positive | Test System: AMES SALMONELLA TYPHIMURIUM, Strain/Indicator: TA100, Metabolic Activation: RAT, LIVER, S-9, AROCLOR 1254, Method: PREINCUBATION active; positive
inactive: End Point: IN VITRO CHROMOSOMAL ABERRATIONS, Test System: CHO CELLS, Metabolic Activation: NONE inactive; negative | End Point: IN VIVO MICRONUCLEUS, Test System: PERIPHERAL BLOOD RETICULOCYTES, Species: RAT, Strain/Sex: FISHER 344 OR SD/MALE, Route: ORAL OR IP inactive; negative | Test System: AMES SALMONELLA TYPHIMURIUM, Strain/Indicator: TA97, Metabolic Activation: NONE, Method: STANDARD PLATE inactive; negative | Test System: AMES SALMONELLA TYPHIMURIUM, Strain/Indicator: TA97, Metabolic Activation: RAT, LIVER, S-9, AROCLOR 1254, Method: STANDARD PLATE inactive; negative | Test System: AMES SALMONELLA TYPHIMURIUM, Strain/Indicator: TA98, Metabolic Activation: NONE, Method: STANDARD PLATE inactive; negative | Test System: AMES SALMONELLA TYPHIMURIUM, Strain/Indicator: TA98, Metabolic Activation: RAT, LIVER, S-9, AROCLOR 1254, Method: STANDARD PLATE inactive; negative | Test System: AMES SALMONELLA TYPHIMURIUM, Strain/Indicator: TA100, Metabolic Activation: HUMAN, LIVER, S-9, Method: PREINCUBATION inactive; negative | Test System: AMES SALMONELLA TYPHIMURIUM, Strain/Indicator: TA100, Metabolic Activation: NONE, Method: PREINCUBATION inactive; negative | Test System: AMES SALMONELLA TYPHIMURIUM, Strain/Indicator: TA100, Metabolic Activation: NONE, Method: STANDARD PLATE inactive; negative | Test System: AMES SALMONELLA TYPHIMURIUM, Strain/Indicator: TA100, Metabolic Activation: PIG, LIVER, S-9, Method: PREINCUBATION inactive; negative | Test System: AMES SALMONELLA TYPHIMURIUM, Strain/Indicator: TA100, Metabolic Activation: RABBIT, LIVER, S-9, Method: STANDARD PLATE inactive; negative | Test System: AMES SALMONELLA TYPHIMURIUM, Strain/Indicator: TA100, Metabolic Activation: RABBIT, LUNG, S-9, Method: STANDARD PLATE inactive; negative | Test System: AMES SALMONELLA TYPHIMURIUM, Strain/Indicator: TA100, Metabolic Activation: RABBIT, NASAL, S-9, Method: STANDARD PLATE inactive; negative
